Earlier results in US4661473A, “Renin inhibitors containing peptide isosteres” (Merck & Co., Inc., priority 1984, dated 1987).

Tested on: hog renin
Settings: after the injection of hog renin into nephrectomized rats; Gross et al. 1971

Substance: Pepstatin
- blood pressure in vivo: reduce blood pressure in vivo
